Experimental data published in patent US9907797B2, “Combination therapies for overcoming resistance to mitotic agents during chemotherapy” (EMORY UNIVERSITY, priority 2014, dated 2018).

How the values were obtained:
PARP1-CHFR interaction = biological target: T1, PARP1-CHFR interaction (Homo sapiens, UniProt Q96EP1); assay: Glutathione affinity pull-down of GST tagged PARP1 with CHFR in HEK293 cells; assay type: cell-based; details: 10 uM, 16 hours
T1 construct: expressed in transfected cells; CHFR endogenous
T1 sequence (Q96EP1 1-664): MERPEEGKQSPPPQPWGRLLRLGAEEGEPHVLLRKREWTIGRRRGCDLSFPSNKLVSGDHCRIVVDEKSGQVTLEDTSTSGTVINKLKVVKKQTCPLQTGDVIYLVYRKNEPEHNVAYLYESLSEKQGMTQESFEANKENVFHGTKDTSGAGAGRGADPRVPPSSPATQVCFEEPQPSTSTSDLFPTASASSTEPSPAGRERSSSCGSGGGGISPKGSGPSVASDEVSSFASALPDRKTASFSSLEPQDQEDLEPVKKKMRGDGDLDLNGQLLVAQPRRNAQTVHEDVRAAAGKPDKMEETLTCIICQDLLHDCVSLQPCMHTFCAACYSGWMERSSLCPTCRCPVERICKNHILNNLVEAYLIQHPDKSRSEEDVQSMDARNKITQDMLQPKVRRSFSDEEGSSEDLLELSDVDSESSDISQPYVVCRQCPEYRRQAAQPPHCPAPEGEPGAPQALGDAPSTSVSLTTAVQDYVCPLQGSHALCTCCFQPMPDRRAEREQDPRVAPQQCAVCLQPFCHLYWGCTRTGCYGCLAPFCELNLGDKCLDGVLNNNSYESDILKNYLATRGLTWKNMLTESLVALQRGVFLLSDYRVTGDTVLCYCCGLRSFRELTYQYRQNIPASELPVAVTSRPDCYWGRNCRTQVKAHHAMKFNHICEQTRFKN
Procedure: In an attempt to generate possible lead compounds for the pharmacologic inhibition of the CHFR-PARP1 interaction, a high throughput computational screen of 5,256,508 chemical structures in the MCULE database of purchasable compounds using the AutoDockVina algorithm against the published crystal structure of the CHFR-PBZ domain was performed. The 10 most promising ‘hits’ based on Autodock Vina docking scores (<−9.7) were selected for further characterization. Commercially available compounds were tested for their impact on nuclear CHFR levels (FIG. 3A). Several compounds, including ‘A2’, ‘A3’, ‘A4’ and ‘A6’ decreased CHFR levels assayed by western blotting of whole cell extracts. The impact of the above referenced compounds on the PARP1/CHFR interaction were evaluated. HEK293 cells were transfected with GST tagged PARP1 and the interaction with CHFR determined in pull down assays for those 4 compounds. […] In contrast to treatment with ABT-888, ‘A3’ completely disrupted the interaction between GST-tagged PARP-1 and CHFR (FIG. 3B). […] Since it is possible that the co-immunoprecipitation between PARP-1 and CHFR after ‘A3’ treatment was negative due to the fact that CHFR was degraded, the experiment was repeated after transfection with the Ring-domain deleted ΔR-CHFR construct, which maintained both stable CHFR and PARP1 levels even after treatment with ‘A3’. […]

CHFR-PARP1 interaction = assay: Glutathione affinity purification of Ring-domain deleted ΔR-CHFR and PARP1 in HEK293 cells; assay type: cell-based; details: increasing concentrations, 16 hours, ΔR-CHFR construct
Procedure: (§1) HEK293 cells were stably transfected with the pDEST27-AR-CHFR construct. Deletion of the RING domain in this construct leads to both stable CHFR and PARP1 expression that is unaltered by treatment with increasing concentrations of ‘A3’ for 16 hours. Nonetheless, the interaction between glutathione-affinity purified CHFR-ΔR and PARP1 was decreased by ‘A3’ in a dose dependent fashion. A549 cells were incubated for 16.5 hrs with MG132 and indicated A3 concentration for 16 hrs. At 10 uM A3 concentration CHFR staining is diminished in the nucleus Cells are stained with CHFR.
(§2) In an attempt to generate possible lead compounds for the pharmacologic inhibition of the CHFR-PARP1 interaction, a high throughput computational screen of 5,256,508 chemical structures in the MCULE database of purchasable compounds using the AutoDockVina algorithm against the published crystal structure of the CHFR-PBZ domain was performed. The 10 most promising ‘hits’ based on Autodock Vina docking scores (<−9.7) were selected for further characterization. Commercially available compounds were tested for their impact on nuclear CHFR levels (FIG. 3A). […] The impact of the above referenced compounds on the PARP1/CHFR interaction were evaluated. HEK293 cells were transfected with GST tagged PARP1 and the interaction with CHFR determined in pull down assays for those 4 compounds. […]

A549 cells = assay: Cell cycle analysis by flow-cytometry, antephase checkpoint; assay type: cell-based; details: unsynchronized A549 cells, 12 hours, docetaxel 50 nM with A3 10 uM
Excerpt: Cell cycle arrest at G2/M in response to microtubular damage is a hallmark of a functional antephase checkpoint.

[1] = tested on: CHFR expressing cell lines; assay: Colony formation assays on a panel of cell lines of different cancer types; assay type: cell-based
Procedure: Various cell lines of different tissues of origin and with different CHFR expression status were exposed to 1 hour of docetaxel and 72 hours of ‘A3’. Effects were defined as 1−colony count (treatment)/colony count (control). The nature of the interaction between the two compounds was analyzed by the Bliss additivity method. […] For subsequent colony formation assays, cell lines were characterized into CHFR expressing vs. CHFR deficient cell lines by Western-Blot.
Finally, colony formation assays were performed on a panel of cell lines of different cancer types such as lung-, breast-, and colon cancer.

[2] = Pharmacokinetics, plasma concentrations by LC/MS/MS; assay type: in vivo; details: CD1 mice
Procedure: The in vivo properties of ‘A3’ were evaluated. The pharmacokinetics of ‘A3’ after a single oral (25 mg/kg) and intravenous (10 mg/kg) dose of in CD1 mice were determined. Plasma was obtained at pre-specified time points (15 min to 24 hours) and ‘A3’ concentrations were determined by LC/MS/MS. […] Oral bioavailability of ‘A3’ was insignificant. The time-point of maximal CHFR suppression at 4 hrs follow the peak in A3 plasma levels with some delay.

CHFR [3] = biological target: T2, CHFR (Homo sapiens, UniProt Q96EP1); assay: CHFR levels by western blotting of whole cell extracts; assay type: cell-based; design: endogenous in cells; host or cells: A549; details: 10 uM, 24 hours, A549 cells
T2 sequence (Q96EP1 1-664): T1 sequence (Q96EP1 1-664)
Procedure: The 10 compounds with the highest docking scores were tested for their ability to regulate CHFR expression levels.
In an attempt to generate possible lead compounds for the pharmacologic inhibition of the CHFR-PARP1 interaction, a high throughput computational screen of 5,256,508 chemical structures in the MCULE database of purchasable compounds using the AutoDockVina algorithm against the published crystal structure of the CHFR-PBZ domain was performed. The 10 most promising ‘hits’ based on Autodock Vina docking scores (<−9.7) were selected for further characterization. Commercially available compounds were tested for their impact on nuclear CHFR levels (FIG. 3A). Several compounds, including ‘A2’, ‘A3’, ‘A4’ and ‘A6’ decreased CHFR levels assayed by western blotting of whole cell extracts. The impact of the above referenced compounds on the PARP1/CHFR interaction were evaluated. HEK293 cells were transfected with GST tagged PARP1 and the interaction with CHFR determined in pull down assays for those 4 compounds. […] In contrast to treatment with ABT-888, ‘A3’ completely disrupted the interaction between GST-tagged PARP-1 and CHFR (FIG. 3B). […]

CHFR [4] = biological target: T2, CHFR; assay: CHFR protein levels in A549 nuclear extracts; assay type: cell-based; design: endogenous in cells; host or cells: A549
Procedure: as §1, §2

Cc1ccc(N2C(=O)NC(=O)C(=Cc3cn(Cc4ccccc4)c4ccccc34)C2=O)cc1C [A3, 5-((1-benzyl-1H-indol-3-yl)methylene)-1-(3,4-dimethylphenyl)pyrimidine-2,4,6(1H,3H,5H)-trione]
interaction between PARP1 and CHFR (PARP1-CHFR interaction): completely inhibited an interaction between PARP1 and CHFR | interaction between CHFR-ΔR and PARP1 (CHFR-PARP1 interaction): dose dependent inhibition of the interaction between CHFR and PARP1 | docetaxel induced cell cycle arrest (A549 cells): prevented docetaxel induced cell cycle arrest | synergy between A3 and docetaxel, colony formation (Bliss additivity) ([1]; CHFR expressing cell line H460): strong synergy | synergy between A3 and docetaxel, colony formation (Bliss additivity) ([1]; CHFR expressing cell lines other than EKVX, 1 hour docetaxel, 72 hours A3): synergy between ‘A3’ and docetaxel was observed for all other CHFR expressing cell lines | distribution ([2]; following intravenous dosing 10 mg/kg): rapidly and widely distributed | relative bioavailability from dose normalized AUC values ([2]; single oral (25 mg/kg) and intravenous (10 mg/kg) dose): 19.5% | Oral bioavailability ([2]; single oral dose 25 mg/kg): insignificant | CHFR expression (CHFR [3]): reduced CHFR expression | CHFR protein levels (CHFR [4]; 10 uM, 16 hrs, A549): complete disappearance of CHFR | CHFR protein levels (CHFR [4]; low concentrations of A3): initial increase in CHFR protein levels
